This is an account of results in the METLIN SMRT retention time set (Domingo-Almenara et al. 2019).

Structures are written as SMILES.

This series can be described thus: gradient 5% acetonitrile 3 min, to 50% in 2 min, to 85% in 15 min, held 3 min, 100 µL/min. Particulars: column: Zorbax Extend-C18 2.1 x 50 mm; eluents: water / acetonitrile, 0.1% formic acid. The method in brief: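 Values are retention times taken from adduct peaks that software picked and an analyst inspected. The pure standards were run as mixtures of ~100 molecules on HPLC linked to a quadrupole time-of-flight mass spectrometer, in positive and negative ionization mode. A Zorbax Extend-C18 column (2.1 × 50 mm, 1.8 μm) was used at 100 μL/min with water and acetonitrile, each including 0.1% formic acid.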
As for `CC(C)CN(Cc1cccnc1)C1CN(S(=O)(=O)Cc2ccccc2F)C1`, the RP-LC retention time was found to be 734 s.
`O=C(CN1CCC(c2nc(-c3ccc(F)cc3)no2)CC1)NC1CCCC1`: the RP-LC retention time amounted to 678 s.
The value for `CN1C(=O)C2CCCCN2c2ccc(C(=O)N3CCN(c4cccc(Cl)c4)CC3)cc21` (centres undefined) was 1060 s; that for `COc1ccc(NS(=O)(=O)c2cc3c(s2)CCN(C(=O)C2CC2)C3)cc1Cl` was 826 s.
The value for `CCOCC(=O)N1CC(c2nc(-c3cccnc3)no2)C2(CCOCC2)C1` (centres undefined) was 622 s; that for `O=C(NCc1cccs1)c1ccc(-c2cccnc2)nc1` was 614 s; that for `Cn1c(=O)sc2cc(S(=O)(=O)N3CCC(C(=O)NCCC4=CCCCC4)CC3)ccc21` was 911 s.
As to `COC(=O)c1cc(OCC(=O)Nc2ccc(F)cc2)c2cc(OC)ccc2n1`, the RP-LC retention time was 810 s.
The value for `CC(=O)Nc1cc2c(cc1S(=O)(=O)c1ccc(C)cc1)n(C)c(=O)n2C` was 683 s.
The value for `CCC(=O)Nc1ccc2c(c1)CN(C(=O)c1ccc(C)cc1)C(C(=O)N1CCCC1)C2` (centres undefined) was 738 s.
In the case of `CN(C)c1cccc(/C=C(\C#N)c2ccccc2)c1`, the RP-LC retention time was 1100 s.
The value for `COc1cc(NC(=O)Cn2cccc2-c2nnc(C3CC3)o2)cc(OC)c1` was 802 s; that for `CCc1nc(-c2cc(S(=O)(=O)Nc3cc(C)ccc3C)c(C)s2)cs1` was 1160 s.
As for `CN(C(=O)Cn1nc(Cc2ccncc2)c2ccccc2c1=O)c1ccc(Br)cc1`, the RP-LC retention time is 655 s.
The value for `CCc1nc2cc(-c3noc(-c4cccc(C#N)c4)n3)ccc2o1` was 1070 s; that for `Cc1cc(N2CCN(C(=O)C3CCC3)CC2)nc2nncn12` was 566 s.
For `Cc1cc(N2C=C(C(=O)N3CCOCC3)S(=O)(=O)c3ccccc32)ccc1Br` the value was 855 s.
The value for `O=C(Nc1ccc(Nc2ccncc2)cc1)c1ccc(Nc2ccnc3ccc([N+](=O)[O-])cc23)cc1` was 636 s.
Take `CCN(CC)C(=O)CC(c1cc(OC)c(OC)c(OC)c1)N1Cc2ccccc2C1=O` (centres undefined): the RP-LC retention time stood at 769 s.
The value for `Cc1noc(C2CN(C(=O)c3cnn(C)c3)CC23CCCC3)n1` (centres undefined) was 684 s.
The value for `CCOC(=O)c1c(C)[nH]c(C)c1S(=O)(=O)N1CCC(C(=O)NCc2ccccc2)CC1` was 754 s.
As for `CCN1CCCn2cc(S(=O)(=O)NCc3ccccc3C(F)(F)F)cc2C1=O`, the RP-LC retention time came to 792 s.
For `Cc1nnc2ccc(S(=O)(=O)N(Cc3ccc(F)cc3)c3ccccc3)cn12` the value was 863 s; for `CC1(C(=O)NCc2ccc(F)cc2)CCCN(C(=O)NCCc2ccccc2)C1` (centres undefined), 857 s; for `O=C(Nc1cccc(-c2ccc(N3CCOCC3)nn2)c1)Nc1ccc2c(c1)CCC2`, 792 s.
The compound `CC1CCCN(S(=O)(=O)c2cc(C(=O)Nc3ccc(F)c(Cl)c3)n(C)c2)C1` (centres undefined) came in with an RP-LC retention time of 1170 s.
Turning to `O=C(Nc1nnc(C2CC(=O)N(c3ccc(Cl)cc3)C2)o1)c1ccccc1` (centres undefined), the RP-LC retention time was determined as 752 s.
For `CC(C)(C)CC(C)(C)NCC(O)COC(C)(C)C` (centres undefined) the value was 588 s.
For `Cc1ccc(-n2nc(C)c3sc(N4CCCC(C(=O)Nc5cccc(Cl)c5C)C4)nc32)cc1` (centres undefined) the value was 1310 s; for `COc1cc(C(=O)NC2CCN(c3cc(-c4cccs4)[nH]n3)C2)cc(OC)c1OC` (centres undefined), 698 s.
The value for `CCOc1ccc(NC(=O)C2=C(C)NC(=O)NC2c2ccc([N+](=O)[O-])cc2)cc1` (centres undefined) was 695 s; that for `COc1cc(-c2nnc(SCC(=O)N3CCCC(C)C3)o2)cc(OC)c1OC` (centres undefined) was 889 s; that for `CCNC(=O)c1c2c(nc3ccccc13)CCC2` was 573 s.
In turn, `CC(C)(C)NC(=O)N1CCC(CNC(=O)c2ccc3nsnc3c2)CC1` gave an RP-LC retention time of 679 s.
The compound `CN(C)S(=O)(=O)c1ccc(-c2nnc(C(=O)NCc3cccnc3)o2)cc1` showed an RP-LC retention time of 595 s.
The value for `CC(C)c1ccc(OCC(=O)N(Cc2ccc(Br)o2)C2CCS(=O)(=O)C2)cc1` (centres undefined) was 1050 s; that for `CCCc1noc(-c2cccnc2N2CCCN(Cc3ccc(C)cc3)CC2)n1` was 749 s; that for `Cc1nc(CC(=O)NCc2ccc(F)c(Cl)c2)sc1C(=O)NC1CC1` was 708 s.
For `CCOC(=O)CCC(=O)Nc1cc(C)nn1-c1nc(-c2ccc(F)cc2)cs1` the value was 1100 s; for `C[C@H](NC(=O)Cc1cc(F)cc(F)c1)C(=O)N[C@H]1N=C(c2ccccc2)c2ccccc2N(C)C1=O`, 853 s; for `CCn1ccc(C(=O)NCC2Cn3cccc3C(=O)N2CC(C)C)n1` (centres undefined), 680 s.
The value for `COc1ccc2c(c1)C1(CCN(C(=O)c3ccc(C)cc3)C1)C(=O)N2C` (centres undefined) was 785 s; that for `O=c1c(S(=O)(=O)N2CCCCCC2)cccn1Cc1cc(F)cc(F)c1` was 999 s.
For `COc1cc(OC)cc(-c2nc(C3CC(=O)N(c4ccc(C)cc4)C3)no2)c1` (centres undefined), the RP-LC retention time stood at 1010 s.
`Cc1ccc(C(=O)NCC2CCCO2)cc1` (centres undefined) displayed an RP-LC retention time of 642 s.
`O=C(C1CCN(c2cc(N3CCCCC3)ncn2)CC1)N1CCSCC1`: the RP-LC retention time worked out at 628 s.
For `CCn1cc(C(=O)NCc2cccc(C)c2)c2cccnc21` the value was 812 s; for `Cc1ccc(-n2c(=O)n(CC(=O)NCCN3CCOCC3)c3cccnc32)cc1`, 596 s; for `CCOc1ccc(-c2noc(CN3C(=O)COc4ccc(S(=O)(=O)CC)cc43)n2)cc1OC`, 873 s.
For `Cc1cc(Cl)ccc1OCC(=O)N1CCn2c(nnc2C(C)C)C1` the value was 665 s; for `CCC(C)n1c(=O)c2ccccc2n(Cc2nc(-c3ccc(OC)c(OC)c3)no2)c1=O` (centres undefined), 1060 s.
The value for `O=S(=O)(Nc1ccc(Cn2cncn2)cc1)c1ccc(Cl)cc1` was 744 s; that for `N#Cc1ccc(NC(=O)Cn2cccc(-c3nc(-c4ccccc4)no3)c2=O)cc1` was 837 s.
On to `CN1C(=O)C2CCCCN2c2ccc(C(=O)NCCC3=CCCCC3)cc21` (centres undefined), for which the RP-LC retention time turned out to be 993 s.
The value for `Nc1nc(-c2ccc(Cl)cc2)nn1C(=O)C1CC1` was 945 s.
The compound `O=C(Cn1nc(C(=O)N2CCCC2)c2ccccc21)NCc1ccc2c(c1)OCO2` registered an RP-LC retention time of 757 s.
The value for `Cc1nc(-c2cn(C(C)C)c3ncccc23)sc1C(=O)N1CCCC(C)C1` (centres undefined) was 1050 s; that for `CCOC(=O)N1CCN(C(=O)CSc2ncnc3c2oc2ccccc23)CC1` was 742 s.
For `Cn1c(=O)c(C(=O)N2CCCCC2)nc2cccnc21` the value was 648 s; for `COc1ccc(-n2cc(C(=O)Oc3cccnc3)c3ccccc3c2=O)cc1`, 911 s.
The value for `O=C1NCCCCCN(C(=O)c2ccc(Cn3ccnc3)o2)[C@H]2CCC[C@@H]12` was 567 s; that for `CCOC(=O)CNC(=O)Nc1cc(F)c2nc(N3CCCC3)ccc2c1` was 590 s; that for `O=C(Nc1ccc(Br)cc1F)C1CCN(S(=O)(=O)Cc2ccccc2)CC1` was 1000 s.
Consider `Cc1ccc(-c2ncccc2CNS(=O)(=O)c2cc(F)ccc2C)cc1`, for which the RP-LC retention time worked out at 738 s.
For `Cn1nc(C(=O)Nc2ccc(CC(=O)NCC(F)(F)F)cc2)ccc1=O` the value was 622 s; for `COc1ccc(-c2cn3ccn(-c4ccc(OC)c(OC)c4)c(=O)c3n2)cc1`, 732 s; for `Cc1c(C(=O)NCc2ccc(OC(C)C)cc2)cc(-c2ccccc2)n1C`, 1080 s.
The compound `COC(=O)c1nnn(-c2cc(Cl)ccc2OC)c1C(=O)OC` registered an RP-LC retention time of 898 s.
The value for `O=C(NCc1ccc(F)cc1)C1CCCN(c2ncnc3c2oc2ccccc23)C1` (centres undefined) was 746 s.
For `CC1(C)CC(=O)c2cn(-c3ccc(F)cc3)c(=O)c(C(=O)N3CCc4ccccc43)c2C1` the value was 954 s.
In turn, `CN1C(=O)c2cc(C(=O)NCCc3ccccc3)nn2CC1(C)C(=O)NCc1ccccc1` (centres undefined) displayed an RP-LC retention time of 769 s.
For `CCCCOc1ccc(C(=O)N2CCNC(=O)C2CC(=O)OC2CCCCC2)cc1` (centres undefined) the value was 1000 s.
`O=C(NCc1ccc2c(c1)OCO2)C(=O)c1cn(CC(=O)N2CCOCC2)c2ccccc12` displayed an RP-LC retention time of 804 s.
With `O=C(CSc1nnc(-c2cccs2)o1)N1CCc2ccccc21`, the RP-LC retention time is 875 s.
`Cc1ccc(C2CC(=O)N(c3ccc(C(C)C)cc3)C(=O)C2)cc1` registered an RP-LC retention time of 1120 s.
For `O=C(c1ccsc1)N1CCC(c2nncn2Cc2ccccc2)CC1` the value was 663 s; for `COc1ccc(CNC(=O)CN2CCc3[nH]c4cc5c(cc4c(=O)c3C2)OCCO5)cc1OC`, 585 s; for `COc1ccc(NC(=O)CN2C(=O)CCc3cc(Br)ccc32)c(OC)c1`, 900 s.
The value for `CCc1ccc(-c2csc(NC(=O)Cc3csc(-c4ccccc4)n3)n2)cc1` was 1240 s.
